We go through 4 compounds from patent US20030229112A1, “Combination therapy for cancer” (priority 2000, published 2003).

For data set [1] the following is noted: irinotecan, SN-38 and APC, following administration.
For the next data set, the system named is Rh18 rhabdomyosarcoma. As to the kind of experiment: Combination study against Rh18 rhabdomyosarcoma xenografts. It is filed as in vivo, mice.
In data set [2] the test system is NB-SD neuroblastoma xenografts. As to the kind of experiment: Combination study against NB-SD neuroblastoma xenografts. Format: in vivo, mice.
For a further data set, the system named is NB-1771 tumors. As to the kind of experiment: Combination study against NB-1771 xenografts. It is filed as in vivo, mice. An excerpt:
It has been have shown that the antitumor activity of camptothecins is highly schedule dependent. […] To determine whether there was similar schedule-dependency for temozolomide, the antitumor activity of this agent was examined when given daily for 5 days, 2×5 days per 21 day cycle or 3×5 days per 28 day cycle. See, as incorporated by reference, Houghton, P. J. et al., Clinical Cancer Res. Vol. 6, 4110-4118, October 2000. The total dose per cycle was constant. […] In this experiment mice received a cumulative dose of 210 mg/kg per cycle. Mice received 3 cycles of treatment (total cumulative dose was 630 mg/kg).

The conditions of data set [3]: same total dose given over 10 days versus over 5 days or as a single administration; cited from earlier work.
Another data set can be described thus: in vivo. The settings on record: mouse.
The subject of data set [4] is glioblastoma line, SJ-GBM2.
Description: To determine whether there was similar schedule-dependency for temozolomide, the antitumor activity of this agent was examined when given daily for 5 days, 2×5 days per 21 day cycle or 3×5 days per 28 day cycle. […] The total dose per cycle was constant. […] Mice received 3 cycles of treatment (total cumulative dose was 630 mg/kg).
For the next data set, the system named is NB-1382 xenografts. The data set is described as follows: Schedule dependence of temozolomide against NB-1382 xenografts. It is filed as in vivo, mice. The procedure: It has been have shown that the antitumor activity of camptothecins is highly schedule dependent. […] The total dose per cycle was constant. […] In this experiment mice received a cumulative dose of 210 mg/kg per cycle.

The next data set relates to advanced melanoma. The settings on record: cited from earlier work.
Data set [5] deals with five other xenograft lines. The data set is described as follows: Schedule dependence of temozolomide in five other xenograft lines. It is filed as in vivo, mice.
Description: To determine whether there was similar schedule-dependency for temozolomide, the antitumor activity of this agent was examined when given daily for 5 days, 2×5 days per 21 day cycle or 3×5 days per 28 day cycle. […] The total dose per cycle was constant. […] In this experiment mice received a cumulative dose of 210 mg/kg per cycle. Mice received 3 cycles of treatment (total cumulative dose was 630 mg/kg).

On to `CCc1c2c(nc3ccc(OC(=O)N4CCC(NCCCCC(=O)O)CC4)cc13)-c1cc3c(c(=O)n1C2)COC(=O)[C@]3(O)CC` [APC], for which the apparent tmax in data set [1] worked out at 60 min.
As to `CCc1c2c(nc3ccc(O)cc13)-c1cc3c(c(=O)n1C2)COC(=O)[C@]3(O)CC` [SN-38], the apparent tmax in [1] turned out to be 15 min.
Broadly, the AUC(0-inf) is the area under the concentration-time curve extrapolated to infinity. As a reminder, the Cmax is the maximum level reached in the sampled fluid or tissue. As a reminder, the Tmax is the time from dosing to the highest level. With `CCc1c2c(nc3ccc(OC(=O)N4CCC(N5CCCCC5)CC4)cc13)-c1cc3c(c(=O)n1C2)COC(=O)[C@]3(O)CC` [irinotecan, 7-ethyl-10-(4-[1-piperidino)-1-piperidino]-carbonyloxy-camptothecin], in the data set with Rh18 rhabdomyosarcoma (CPT-11 alone at the doses used in the combination), the tumor response result is given as “few CRs”. Also, the tumor response entry in data set [2] (CPT-11 alone at 0.4 mg/kg) is on record as “tumors progressed”. In addition, the tumor response result with NB-1771 tumors (CPT-11 alone at 0.61 mg/kg) is “an occasional CR”. For the same compound, the “tumor status at week 12” value in the data set with NB-1771 tumors (CPT-11 alone at 1.25 or 0.61 mg/kg) is “all tumors had progressed”. Also, the “antitumor activity by schedule” value in data set [3] is “significantly more active”. In the data set “in vivo”, the AUC(0-inf) is 1820 ng·h/mL, the highest level (Cmax) was 1240 ng/mL and the time to peak (Tmax) was 30 min.
Consider `Cn1nnc2c(C(N)=O)ncn2c1=O` [temozolomide, 3,4-dihydro-3-methyl-4-oxoimidazo-[5,1-d]1,2,3,4-tetrazin-8-carboximide], for which, in data set [4] (temozolomide alone at 42 mg/kg, tumor volume at end of treatment similar to initiation), the “overall effect of treatment” value was “stasis”. Besides, the tumor response entry was “some PRs, and an occasional CR” in data set [4] (temozolomide alone at 66 or 42 mg/kg, during the 8 weeks of treatment); “little activity” in data set [2] (temozolomide alone at tolerated dose levels); “progressively less effective” with NB-1382 xenografts (lower doses given over more protracted periods (2x5 days per 21 day cycle, 3x5 days per 28 day cycle), same total dose per cycle); “CRs were achieved in all mice, and were maintained at week 12” in the data set with NB-1382 xenografts (temozolomide given over 5 days, 42 mg/kg/dose, 210 mg/kg per cycle, 3 cycles). The toxicity entry in [4] (temozolomide alone, higher dose level (66 mg/kg)) is “lethal during cycle 3 of treatment”. For the same compound, the “sensitivity of xenograft to single agent” value with Rh18 rhabdomyosarcoma (temozolomide as a single agent) was “poorly sensitive”. For the same compound, the “clinical responses, % of patients” value with advanced melanoma (patients having advanced melanoma, Newlands et al., Br. J Cancer 1992) is on record as 17%. In addition, the “clinical response, % of patients” value in the data set with advanced melanoma (patients with advanced melanoma, Journal of Clinical Oncology 1995) is given as 21%. Further, the “sensitivity of tumors to single agent” value with NB-1771 tumors (temozolomide as a single agent) is given as “relatively sensitive”. Moreover, the “activity of most intensive schedule (daily for 5 consecutive days per cycle) compared to the other schedules” value in [5] (all experiments) was “either more active or equally active”. The schedule-dependent antitumor activity entry in [5] (five other xenograft lines (data not shown)) was “Far less schedule-dependent antitumor activity”. This compound also returned an AUC(0-inf) in the data set “in vivo” of 47000 ng·h/mL. In the data set “in vivo”, this compound yielded a peak concentration (Cmax) of 36000 ng/mL. For the same compound, in “in vivo”, the Tmax is 30 min.
